Laboratory results reported in patent US20260347387A1, “Lipid-Gold Salt Molecules and Formulation in Lipid Nanoparticle Delivery Systems” (NORTHWESTERN UNIVERSITY, priority 2023, published 2026).

Test system: TOV-21G ovarian cancer cells
Assay: Cell viability assay, TOV-21G clear cell ovarian cancer cells
Type: cell-based
Details: Table C, FIGS. 24, 25
Method: In vitro cellular viability assay. ES-2 (2,500 cells/well), 786-0 ccRCCa (400 cells/well), Ramos (16,000 cells/well), SUDHL4 (16,000 cells/well), Jurkat (16,000 cells/well), CWR-R1 (1,000 cells/well), LNCaP (2,000 cells/well), and 22rv1 (2,000 cells/well) were plated into 96 well plates. Adherent ES-2, CWR-R1, LNCaP, 22rv1, and 786-0 cells were incubated for 24 h. Media in the wells was then replaced with pre-prepared media containing the appropriate drug formulations at the appropriate drug concentration. Ramos, SUDHL4, and Jurkat cells are suspension cell lines and were plated and treated on the same day. After 72 h, cell viability was measured via an MTS cell-proliferation assay (CellTiter 96 Aqueous One, Promega; Madison, WI) and the relative cell-survival percentages compared to the vehicle control were plotted against the concentration of either the AuNP or the oc-HDL NPs in logarithmic scale. The data reported represent an average of three measurements.
Addition of gold salts to HDL-NPs disclosed herein decreased cell viability more than the addition of gold salts to oc-HDL NPs disclosed herein in a clear cell ovarian cancer model (TOV-21Gcell line). Cells were treated with gold-bearing HDL-NPs or gold salts as disclosed herein in an assay described in the Materials and protocols for in vitro studies section above.

## CCP(CC)CC.[Au+].[Cl-] [Et3PAuCl, Chloro(triethylphosphine)gold(I)]
  IC50: 9.74 nM
